From patent US9428499B2, “Heterocyclyl compounds as MEK inhibitors” (LUPIN LIMITED, priority 2012, dated 2016)

Test system: ERK phosphorylation
Assay: Analysis of ERK phosphorylation (Alphascreen SureFire Phospho-ERK 1/2)
Assay type: cell-based, human and mouse
Conditions: cells treated for 1 h; human melanoma cells, human and mouse colon cancer cells; read-out: Minimum concentration (nM) required for ≧80% inhibition of pERK
Method: This assay was carried out with human melanoma cells, human and mouse colon cancer cells. Cells were treated for 1 h with various concentrations of test compounds. ERK phosphorylation analysis was performed using the Alphascreen SureFire Phospho-ERK 1/2 Kit (Perkin Elmer), by following the manufacturer's instructions. % inhibition of ERK phosphorylation was determined as: 100−{(RFU test−RFU lysis buffer control)/(RFU vehicle treated control−RFU lysis buffer control)}×100. Percentage inhibition at concentrations of 0.01 nM, 0.03 nM, 0.1-0.9 nM, 1 nM to 3 nM, 4-100 nM, and >100 nM, for the stated examples is setworth here. The percentage inhibition at the above depicted concentrations for the compounds stated are given in the following groups.

SMILES | IC80
Cc1c(=O)n(C)c(Nc2ccc(I)cc2F)c2c(=O)n(C(C)C)c(=O)n(-c3cccc(C(=O)NC4CC4)c3)c12 [Compound 69, N-cyclopropyl-3-(5-((2-fluoro-4-iodophenyl)amino)-3-isopropyl-6,8-dimethyl-2,4,7-trioxo-3,4,6,7-tetrahydropyrido[4,3-d]pyrimidin-1(2H)-yl)benzamide] | > 100 nM
CCn1c(=O)c2c(Nc3ccc(I)cc3F)n(C)c(=O)c(C)c2n(-c2cccc(CCC(N)=O)c2)c1=O [Compound 61, 3-(3-(3-ethyl-5-((2-fluoro-4-iodophenyl)amino)-6,8-dimethyl-2,4,7-trioxo-3,4,6,7-tetrahydropyrido[4,3-d]pyrimidin-1(2H)-yl)phenyl)propanamide] | 1 to 3 nM
Cc1c(=O)n(C)c(Nc2ccc(I)cc2F)c2c(=O)n(C3CC3)c(=O)n(-c3cccc(OCC(=O)NC4CC4)c3)c12 [Compound 25, N-cyclopropyl-2-(3-(3-cyclopropyl-5-((2-fluoro-4-iodophenyl)amino)-6,8-dimethyl-2,4,7-trioxo-3,4,6,7-tetrahydropyrido[4,3-d]pyrimidin-1(2H)-yl)phenoxy)acetamide] | 0.1 to 0.9 nM
Cc1c(=O)n(C)c(Nc2ccc(I)cc2F)c2c(=O)[nH]c(=O)n(-c3cccc(CCC(=O)NC4CC4)c3)c12 [Compound 19, N-cyclopropyl-3-(3-(5-((2-fluoro-4-iodophenyl)amino)-6,8-dimethyl-2,4,7-trioxo-3,4,6,7-tetrahydropyrido[4,3-d]pyrimidin-1(2H)-yl)phenyl)propanamide] | 4 to 100 nM
Cc1c(=O)n(C)c(Nc2ccc(I)cc2F)c2c(=O)[nH]c(=O)n(-c3cccc(OC(C)(C)C(N)=O)c3)c12 [Compound 20, 2-(3-(5-((2-fluoro-4-iodophenyl)amino)-6,8-dimethyl-2,4,7-trioxo-3,4,6,7-tetrahydropyrido[4,3-d]pyrimidin-1(2H)-yl)phenoxy)-2-methylpropanamide] | 1 to 3 nM
Cc1c(=O)n(C)c(Nc2ccc(I)cc2F)c2c(=O)[nH]c(=O)n(-c3cccc(C(=O)N4CCOCC4)c3)c12 [Compound 7, 5-((2-fluoro-4-iodophenyl)amino)-6,8-dimethyl-1-(3-(morpholine-4-carbonyl)phenyl)pyrido[4,3-d]pyrimidine-2,4,7(1H,3H,6H)-trione] | 4 to 100 nM
Cc1c(=O)n(C)c(Nc2ccc(I)cc2F)c2c(=O)[nH]c(=O)n(-c3cccc(C(=O)N4CCC4)c3)c12 [Compound 3, 1-(3-(azetidine-1-carbonyl)phenyl)-5-((2-fluoro-4-iodophenyl)amino)-6,8-dimethylpyrido[4,3-d]pyrimidine-2,4,7(1H,3H,6H)-trione] | 1 to 3 nM
Cc1c(=O)n(C)c(Nc2ccc(I)cc2F)c2c(=O)n(C)c(=O)n(-c3cccc(C(=O)N4CCS(=O)(=O)CC4)c3)c12 [Compound 65, 1-(3-(1,1-dioxidothiomorpholine-4-carbonyl)phenyl)-5-((2-fluoro-4-iodophenyl)amino)-3,6,8-trimethylpyrido[4,3-d]pyrimidine-2,4,7(1H,3H,6H)-trione] | 0.1 to 0.9 nM
Cc1c(=O)n(C)c(Nc2ccc(I)cc2F)c2c(=O)[nH]c(=O)n(-c3cccc(OCC(=O)NC4CC4)c3)c12 [Compound 6, N-cyclopropyl-2-(3-(5-((2-fluoro-4-iodophenyl)amino)-6,8-dimethyl-2,4,7-trioxo-3,4,6,7-tetrahydropyrido[4,3-d]pyrimidin-1(2H)-yl)phenoxy)acetamide] | 0.01 nM
Cc1c(=O)n(C)c(Nc2ccc(I)cc2F)c2c(=O)n(C)c(=O)n(-c3cccc(CC(=O)NC4COC4)c3)c12 [Compound 50, 2-(3-(5-((2-fluoro-4-iodophenyl)amino)-3,6,8-trimethyl-2,4,7-trioxo-3,4,6,7-tetrahydropyrido[4,3-d]pyrimidin-1(2H)-yl)phenyl)-N-(oxetan-3-yl)acetamide] | 4 to 100 nM
Cc1c(=O)n(C)c(Nc2ccc(I)cc2F)c2c(=O)n(C3CC3)c(=O)n(-c3cccc(OCC(N)=O)c3)c12 [Compound 35, 2-(3-(3-cyclopropyl-5-((2-fluoro-4-iodophenyl)amino)-6,8-dimethyl-2,4,7-trioxo-3,4,6,7-tetrahydropyrido[4,3-d]pyrimidin-1(2H)-yl)phenoxy)acetamide] | 0.03 nM
Cc1c(=O)n(C)c(Nc2ccc(I)cc2F)c2c(=O)[nH]c(=O)n(-c3cccc(C(=O)N4CCS(=O)(=O)C4)c3)c12 [Compound 17, 1-(3-(1,1-dioxidothiazolidine-3-carbonyl)phenyl)-5-((2-fluoro-4-iodophenyl)amino)-6,8-dimethylpyrido[4,3-d]pyrimidine-2,4,7(1H,3H,6H)-trione] | 0.1 to 0.9 nM
Cc1c(=O)n(C)c(Nc2ccc(I)cc2F)c2c(=O)n(CCO)c(=O)n(-c3cccc(C(=O)NC4CC4)c3)c12 [Compound 55, N-cyclopropyl-3-(5-((2-fluoro-4-iodophenyl)amino)-3-(2-hydroxyethyl)-6,8-dimethyl-2,4,7-trioxo-3,4,6,7-tetrahydropyrido[4,3-d]pyrimidin-1(2H)-yl)benzamide] | 4 to 100 nM
Cc1c(=O)n(C)c(Nc2ccc(I)cc2F)c2c(=O)[nH]c(=O)n(-c3cccc(CC(=O)NC4CC4)c3)c12 [Compound 4, N-cyclopropyl-2-(3-(5-((2-fluoro-4-iodophenyl)amino)-6,8-dimethyl-2,4,7-trioxo-3,4,6,7-tetrahydropyrido[4,3-d]pyrimidin-1(2H)-yl)phenyl)acetamide] | 1 to 3 nM
Cc1c(=O)n(C)c(Nc2ccc(I)cc2F)c2c(=O)n(C)c(=O)n(-c3cccc(C(=O)N4CCC4)c3)c12 [Compound 56, 1-(3-(azetidine-1-carbonyl)phenyl)-5-((2-fluoro-4-iodophenyl)amino)-3,6,8-trimethylpyrido[4,3-d]pyrimidine-2,4,7(1H,3H,6H)-trione] | 1 to 3 nM
Cc1c(=O)n(C)c(Nc2ccc(I)cc2F)c2c(=O)n(C3CC3)c(=O)n(-c3cccc(C(=O)N4CCC4)c3)c12 [Compound 24, 1-(3-(azetidine-1-carbonyl)phenyl)-3-cyclopropyl-5-((2-fluoro-4-iodophenyl)amino)-6,8-dimethylpyrido[4,3-d]pyrimidine-2,4,7(1H,3H,6H)-trione] | 0.1 to 0.9 nM
Cc1c(=O)n(C)c(Nc2ccc(I)cc2F)c2c(=O)n(C)c(=O)n(-c3cccc(CC(=O)N4CCC4)c3)c12 [Compound 46, 1-(3-(2-(azetidin-1-yl)-2-oxoethyl)phenyl)-5-((2-fluoro-4-iodophenyl)amino)-3,6,8-trimethylpyrido[4,3-d]pyrimidine-2,4,7(1H,3H,6H)-trione] | 0.01 nM
Cc1c(=O)n(C)c(Nc2ccc(I)cc2F)c2c(=O)n(C)c(=O)n(-c3cccc(C(=O)NC4CCOC4)c3)c12 (stereo not shown) [Compound 51, 3-(5-((2-fluoro-4-iodophenyl)amino)-3,6,8-trimethyl-2,4,7-trioxo-3,4,6,7-tetrahydropyrido[4,3-d]pyrimidin-1(2H)-yl)-N-(tetrahydrofuran-3-yl)benzamide] | 0.01 nM
Cc1c(=O)n(C)c(Nc2ccc(I)cc2F)c2c(=O)[nH]c(=O)n(-c3cccc(C(=O)N4CCNCC4)c3)c12 [Compound 23, 5-((2-fluoro-4-iodophenyl)amino)-6,8-dimethyl-1-(3-(piperazine-1-carbonyl)phenyl)pyrido[4,3-d]pyrimidine-2,4,7(1H,3H,6H)-trione] | 4 to 100 nM
Cc1c(=O)n(C)c(Nc2ccc(I)cc2F)c2c(=O)n(C)c(=O)n(-c3cccc(CC(=O)NC4CC4)c3)c12 [Compound 58, N-cyclopropyl-2-(3-(5-((2-fluoro-4-iodophenyl)amino)-3,6,8-trimethyl-2,4,7-trioxo-3,4,6,7-tetrahydropyrido[4,3-d]pyrimidin-1(2H)-yl)phenyl)acetamide] | 1 to 3 nM
Cc1c(=O)n(C)c(Nc2ccc(I)cc2F)c2c(=O)n(C3CC3)c(=O)n(-c3cccc(CC(=O)N4CC(O)C4)c3)c12 [Compound 33, 3-cyclopropyl-5-((2-fluoro-4-iodophenyl)amino)-1-(3-(2-(3-hydroxyazetidin-1-yl)-2-oxoethyl)phenyl)-6,8-dimethylpyrido[4,3-d]pyrimidine-2,4,7(1H,3H,6H)-trione] | 1 to 3 nM
Cc1c(=O)n(C)c(Nc2ccc(I)cc2F)c2c(=O)n(C)c(=O)n(-c3cccc(C(F)(F)C(N)=O)c3)c12 [Compound 45, 2,2-difluoro-2-(3-(5-((2-fluoro-4-iodophenyl)amino)-3,6,8-trimethyl-2,4,7-trioxo-3,4,6,7-tetrahydropyrido[4,3-d]pyrimidin-1(2H)-yl)phenyl)acetamide] | 1 to 3 nM
Cc1c(=O)n(C)c(Nc2ccc(I)cc2F)c2c(=O)n(C)c(=O)n(-c3cccc(OCC(=O)NC4CC4)c3)c12 [Compound 41, N-cyclopropyl-2-(3-(5-((2-fluoro-4-iodophenyl)amino)-3,6,8-trimethyl-2,4,7-trioxo-3,4,6,7-tetrahydropyrido[4,3-d]pyrimidin-1(2H)-yl)phenoxy)acetamide] | 0.1 to 0.9 nM
Cc1c(=O)n(C)c(Nc2ccc(I)cc2F)c2c(=O)[nH]c(=O)n(-c3cccc(C(=O)NC4CCOCC4)c3)c12 [Compound 13, 3-(5-((2-fluoro-4-iodophenyl)amino)-6,8-dimethyl-2,4,7-trioxo-3,4,6,7-tetrahydropyrido[4,3-d]pyrimidin-1(2H)-yl)-N-(tetrahydro-2H-pyran-4-yl)benzamide] | 0.01 nM
Cc1c(=O)n(C)c(Nc2ccc(I)cc2F)c2c(=O)n(CC(=O)O)c(=O)n(-c3cccc(C(=O)NC4CC4)c3)c12 [Compound 74, 2-(1-(3-(cyclopropylcarbamoyl)phenyl)-5-((2-fluoro-4-iodophenyl)amino)-6,8-dimethyl-2,4,7-trioxo-1,2,6,7-tetrahydropyrido[4,3-d]pyrimidin-3(4H)-yl)acetic acid] | > 100 nM
